# In publication PMC2829385 (The Journal of investigative dermatology, 2009):
# Where “and” joins values, the source holds several entries; their conditions need not be identical. Equal values may be shown once. Entries after “also recorded” stand apart in the source; their conditions may differ. Where a name gives a salt, the structure may show the parent alone.
# Key:
# ATM = conditions: read-out: IC50 for ATM; ref Sarkaria et al., 1999; cited from earlier work
# [1] = humans drinking 2–5 cups of coffee per day; ref de Leon et al., 2003; cited from earlier work
# [2] = system: ATR-dependent serine 345 residue of Chk1; assay: Western blot of UVB-induced Chk1 Ser345 phosphorylation in keratinocytes; type: cell-based, human; conditions: 2 mM caffeine, 75 mJ/cm^2 UVB (Figure 2a)
# [3] = system: primary human keratinocytes; assay: Western blot of UVB-induced caspase 3 and PARP cleavage in keratinocytes; type: cell-based; conditions: 2 mM caffeine, 75 mJ/cm^2 UVB, 8 h (Figure 1a)
# [4] = system: phosphorylation of Chk1 on Ser345; conditions: mice, oral caffeine in drinking water 0.4 mg/ml (2 mM); ref Lu et al., 2008; cited from earlier work
# [5] = system: primary human keratinocytes; assay: UVB-induced apoptosis, sub-2N DNA content by flow cytometry; type: cell-based
# cAMP phosphodiesterase = conditions: read-out: IC50 cAMP phosphodiesterase; ref Butcher and Sutherland, 1962; cited from earlier work
# [6] = system: UV-induced skin carcinogenesis; conditions: mice, oral caffeine as drinking fluid 0.4 mg/ml; ref Huang et al., 1997; cited from earlier work
SMILES,IC50 (ATM) [µM],plasma concentration of caffeine [1],effect on UVB-induced Chk1 phosphorylation at serine 345 [2],effect on UVB-induced cleavage of caspase 3 and PARP [3],effect on UVB-induced phosphorylation of Chk1 on Ser345 in the epidermis [4],"proportion of cells undergoing apoptosis (sub-2N DNA content) ([5]; 2 mM caffeine 30 min before 75 mJ/cm^2 UVB, 24 h, UVB alone 10% (Figure 1b)) [%]","proportion of cells undergoing apoptosis (sub-2N DNA content) ([5]; 2 mM caffeine alone (scrambled siRNA), 75 mJ/cm^2 UVB, 24 h (Figure 2c)) [%]","proportion of cells undergoing apoptosis (sub-2N DNA content) ([5]; 2 mM caffeine plus ATR siRNA, 75 mJ/cm^2 UVB, 24 h (Figure 2c)) [%]","increase in UVB-induced apoptosis vs UVB alone (relative cell death) ([5]; 2 mM caffeine pretreatment, 75 mJ/cm^2 UVB (Figure 1c))",IC50 (cAMP phosphodiesterase) [µM],effect on UV-induced skin carcinogenesis [6],"effect on UVB-induced apoptosis ([5]; doses up to 300 μM, 30 min before 75 mJ/cm^2 UVB, 24 h (Figure 1d))"
"Cn1c(=O)c2c(ncn2C)n(C)c1=O [caffeine, Caffeine]",200,3.2 mg/l and 16 μM,inhibited,augmented,markedly inhibited,24,42,48,two- to three-fold increase; also recorded: more than doubled,3000,inhibits,–
"CCCC(=O)Nc1ncnc2c1ncn2[C@@H]1O[C@@H]2COP(=O)(O)O[C@H]2[C@H]1OC(=O)CCC [dibutyryl cAMP, N^6,2′-O-Dibutyryladenosine 3′,5′-cyclic monophosphate sodium salt]",–,–,–,–,–,–,–,–,–,–,–,no effect
